Reference: PubChem BioAssay (NCI)
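Grown in 96-well plates, cells were treated for 48 hours with each compound at five concentrations. Insufficient inhibition: endpoint recorded as highest concentration tested. At the GI50, growth is halved. TGI marks complete inhibition of growth.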

Tests used:
Assay in all cases: NCI anticancer screen, dose series, 48 h
NCI-H23 lung = test system: NCI-H23 lung
SK-MEL-2 melanoma = test system: SK-MEL-2 melanoma
U251 CNS = test system: U251 CNS
HT29 colon = test system: HT29 colon
LOX IMVI melanoma = test system: LOX IMVI melanoma
MOLT-4 leukemia = test system: MOLT-4 leukemia
MDA-MB-231 breast = test system: MDA-MB-231 breast
T-47D breast = test system: T-47D breast
RXF 393 renal = test system: RXF 393 renal
OVCAR-8 ovarian = test system: OVCAR-8 ovarian
HOP-62 NSCLC = test system: HOP-62 NSCLC
OVCAR-4 ovarian = test system: OVCAR-4 ovarian
A498 renal = test system: A498 renal
SF-295 CNS = test system: SF-295 CNS
NCI-H460 lung = test system: NCI-H460 lung
UO-31 renal = test system: UO-31 renal
COLO 205 colon = test system: COLO 205 colon
SN12C renal = test system: SN12C renal
M14 melanoma = test system: M14 melanoma
TK-10 renal = test system: TK-10 renal
IGROV1 ovarian = test system: IGROV1 ovarian
EKVX NSCLC = test system: EKVX NSCLC
BT-549 breast = test system: BT-549 breast
SK-MEL-28 melanoma = test system: SK-MEL-28 melanoma
HS 578T breast = test system: HS 578T breast
NCI-H226 lung = test system: NCI-H226 lung
MCF7 breast = test system: MCF7 breast
SNB-75 CNS = test system: SNB-75 CNS
UACC-257 melanoma = test system: UACC-257 melanoma
MALME-3M melanoma = test system: MALME-3M melanoma
ACHN renal = test system: ACHN renal
OVCAR-5 ovarian = test system: OVCAR-5 ovarian
DU-145 prostate = test system: DU-145 prostate
A549 NSCLC = test system: A549 NSCLC
MDA-MB-435 = test system: MDA-MB-435
HOP-92 NSCLC = test system: HOP-92 NSCLC
UACC-62 melanoma = test system: UACC-62 melanoma
HCT-15 colon = test system: HCT-15 colon
SF-268 CNS = test system: SF-268 CNS
CAKI-1 renal = test system: CAKI-1 renal
HCT-116 colon = test system: HCT-116 colon
HL-60(TB) leukemia = test system: HL-60(TB) leukemia
HCC-2998 colon = test system: HCC-2998 colon
786-0 renal = test system: 786-0 renal
PC-3 prostate = test system: PC-3 prostate
NCI/ADR-RES ovarian = test system: NCI/ADR-RES ovarian
SNB-19 CNS = test system: SNB-19 CNS
K-562 leukemia = test system: K-562 leukemia
SR leukemia = test system: SR leukemia
SK-MEL-5 melanoma = test system: SK-MEL-5 melanoma
KM12 colon = test system: KM12 colon
NCI-H522 lung = test system: NCI-H522 lung
SW-620 colon = test system: SW-620 colon
CCRF-CEM leukemia = test system: CCRF-CEM leukemia
OVCAR-3 ovarian = test system: OVCAR-3 ovarian
RPMI-8226 leukemia = test system: RPMI-8226 leukemia
SF-539 CNS = test system: SF-539 CNS
SK-OV-3 ovarian = test system: SK-OV-3 ovarian

Compound `CCOC(=O)c1c(NCC(=O)Nc2cccc([N+](=O)[O-])c2)sc2c1CCCC2` has a GI50 (NCI-H23 lung) of 217 nM, a TGI (NCI-H23 lung) of 722 nM and a GI50 (SK-MEL-2 melanoma) of 436 nM. For the same compound, the TGI (SK-MEL-2 melanoma) was 2290 nM, the GI50 (U251 CNS) was 284 nM and the TGI (U251 CNS) was 979 nM. The GI50 (HT29 colon) was 273 nM, the TGI (HT29 colon) was 1060 nM and the GI50 (LOX IMVI melanoma) was 195 nM. For the same compound, the TGI (LOX IMVI melanoma) was 405 nM, the GI50 (MOLT-4 leukemia) was 246 nM and the TGI (MOLT-4 leukemia) was 4160 nM. For the same compound, the GI50 (MDA-MB-231 breast) was 280 nM, the TGI (MDA-MB-231 breast) was 1010 nM and the GI50 (T-47D breast) was 728 nM. For the same compound, the TGI (T-47D breast) was 3120 nM, the GI50 (RXF 393 renal) was 182 nM and the TGI (RXF 393 renal) was 360 nM. For the same compound, the GI50 (OVCAR-8 ovarian) was 351 nM, the TGI (OVCAR-8 ovarian) was > 100000 nM and the GI50 (HOP-62 NSCLC) was 416 nM. The TGI (HOP-62 NSCLC) was 1990 nM, the GI50 (OVCAR-4 ovarian) was 338 nM and the TGI (OVCAR-4 ovarian) was 3730 nM. The GI50 (A498 renal) was 194 nM, the TGI (A498 renal) was 392 nM and the GI50 (SF-295 CNS) was 310 nM. It also gave a TGI (SF-295 CNS) of 1180 nM, a GI50 (NCI-H460 lung) of 265 nM and a TGI (NCI-H460 lung) of 707 nM. For the same compound, the GI50 (UO-31 renal) was 198 nM, the TGI (UO-31 renal) was 583 nM and the GI50 (COLO 205 colon) was 274 nM. It also gave a TGI (COLO 205 colon) of 774 nM, a GI50 (SN12C renal) of 256 nM and a TGI (SN12C renal) of 793 nM. It also gave a GI50 (M14 melanoma) of 183 nM, a TGI (M14 melanoma) of 361 nM and a GI50 (TK-10 renal) of 256 nM. It also gave a TGI (TK-10 renal) of 782 nM, a GI50 (IGROV1 ovarian) of 236 nM and a TGI (IGROV1 ovarian) of 738 nM. It also gave a GI50 (EKVX NSCLC) of 718 nM, a TGI (EKVX NSCLC) of 3640 nM and a GI50 (BT-549 breast) of 211 nM. It also gave a TGI (BT-549 breast) of 605 nM, a GI50 (SK-MEL-28 melanoma) of 235 nM and a TGI (SK-MEL-28 melanoma) of 596 nM. It also gave a GI50 (HS 578T breast) of 264 nM, a TGI (HS 578T breast) of 773 nM and a GI50 (NCI-H226 lung) of 194 nM. The TGI (NCI-H226 lung) was 471 nM, the GI50 (MCF7 breast) was 272 nM and the TGI (MCF7 breast) was 974 nM. It also gave a GI50 (SNB-75 CNS) of 214 nM, a TGI (SNB-75 CNS) of 1690 nM and a GI50 (UACC-257 melanoma) of 401 nM. It also gave a TGI (UACC-257 melanoma) of 2130 nM, a GI50 (MALME-3M melanoma) of 181 nM and a TGI (MALME-3M melanoma) of 407 nM. For the same compound, the GI50 (ACHN renal) was 281 nM, the TGI (ACHN renal) was 795 nM and the GI50 (OVCAR-5 ovarian) was 270 nM. For the same compound, the TGI (OVCAR-5 ovarian) was 779 nM, the GI50 (DU-145 prostate) was 316 nM and the TGI (DU-145 prostate) was 1360 nM. The GI50 (A549 NSCLC) was 301 nM, the TGI (A549 NSCLC) was 2680 nM and the GI50 (MDA-MB-435) was 328 nM. For the same compound, the TGI (MDA-MB-435) was 1090 nM, the GI50 (HOP-92 NSCLC) was 209 nM and the TGI (HOP-92 NSCLC) was 696 nM. For the same compound, the GI50 (UACC-62 melanoma) was 173 nM, the TGI (UACC-62 melanoma) was 380 nM and the GI50 (HCT-15 colon) was 265 nM. The TGI (HCT-15 colon) was 1330 nM, the GI50 (SF-268 CNS) was 354 nM and the TGI (SF-268 CNS) was 1690 nM. For the same compound, the GI50 (CAKI-1 renal) was 251 nM, the TGI (CAKI-1 renal) was 735 nM and the GI50 (HCT-116 colon) was 263 nM. The TGI (HCT-116 colon) was 805 nM, the GI50 (HL-60(TB) leukemia) was 280 nM and the TGI (HL-60(TB) leukemia) was 4200 nM. It also gave a GI50 (HCC-2998 colon) of 207 nM, a TGI (HCC-2998 colon) of 499 nM and a GI50 (786-0 renal) of 271 nM. For the same compound, the TGI (786-0 renal) was 840 nM, the GI50 (PC-3 prostate) was 250 nM and the TGI (PC-3 prostate) was 726 nM. For the same compound, the GI50 (NCI/ADR-RES ovarian) was 267 nM, the TGI (NCI/ADR-RES ovarian) was 762 nM and the GI50 (SNB-19 CNS) was 306 nM. The TGI (SNB-19 CNS) was 1080 nM, the GI50 (K-562 leukemia) was 278 nM and the GI50 (SR leukemia) was 276 nM. The GI50 (SK-MEL-5 melanoma) was 182 nM, the TGI (SK-MEL-5 melanoma) was 354 nM and the GI50 (KM12 colon) was 315 nM. For the same compound, the TGI (KM12 colon) was 966 nM, the GI50 (NCI-H522 lung) was 226 nM and the TGI (NCI-H522 lung) was 739 nM. It also gave a GI50 (SW-620 colon) of 315 nM, a TGI (SW-620 colon) of 1210 nM and a GI50 (CCRF-CEM leukemia) of 253 nM. It also gave a GI50 (OVCAR-3 ovarian) of 289 nM, a TGI (OVCAR-3 ovarian) of 770 nM and a GI50 (RPMI-8226 leukemia) of 310 nM. The TGI (RPMI-8226 leukemia) was 1060 nM, the GI50 (SF-539 CNS) was 242 nM and the TGI (SF-539 CNS) was 644 nM. It also gave a GI50 (SK-OV-3 ovarian) of 294 nM and a TGI (SK-OV-3 ovarian) of 856 nM.
